Common to all, as to assay type: functional, organism-based, Hepacivirus hominis
The test system of experiment [1] is Hepatitis C virus. Briefly: Antiviral activity against HCV genotype 1b assessed as replicon RNA level measured after 3 days by real-time PCR method. The settings on record: 72 h. (Replicon systems follow genome replication, usually without infectious particles.)
Experiment [2] relates to Hepatitis C virus. The experiment in a line: Antiviral activity against HCV genotype 1a assessed as replicon RNA level measured after 3 days by real-time PCR method. The settings on record: subtype 1a, 72 h.
For experiment [3], the system named is Hepatitis C virus. The experiment in a line: Antiviral activity against HCV genotype 1a harboring NS5A L31V mutant assessed as replicon RNA level measured after 3 days by real-time PCR method. The settings on record: subtype 1a, 72 h.
Experiment [4] relates to Hepatitis C virus. Briefly: Antiviral activity against HCV genotype 2b assessed as replicon RNA level measured after 3 days by real-time PCR method. The settings on record: 72 h.
The test system of experiment [5] is Hepatitis C virus. The experiment in a line: Antiviral activity against HCV genotype 1a harboring NS5A Y93H mutant assessed as replicon RNA level measured after 3 days by real-time PCR method. The settings on record: subtype 1a, 72 h.
The subject of experiment [6] is Hepatitis C virus. The experiment in a line: Antiviral activity against HCV genotype 4a assessed as replicon RNA level measured after 3 days by real-time PCR method. The conditions noted are these: 72 h.
Experiment [7] deals with Hepatitis C virus. Briefly: Antiviral activity against HCV genotype 2a assessed as replicon RNA level measured after 3 days by real-time PCR method. The conditions noted are these: 72 h.
For experiment [8], the system named is Hepatitis C virus. Briefly: Antiviral activity against HCV genotype 3a assessed as replicon RNA level measured after 3 days by real-time PCR method. The settings on record: 72 h.

By EC50 is commonly meant the concentration needed to bring the measured effect to its halfway point.

With `COC(=O)N[C@H](C(=O)N1CCC[C@H]1c1ncc(-c2ccc3c(c2)OC(c2cc(F)ccc2OC)n2c-3cc3cc(-c4cnc([C@@H]5CCCN5C(=O)[C@@H](NC(=O)OC)C(C)C)[nH]4)ccc32)[nH]1)C(C)C` (stereo partly drawn), the EC50 with Hepatitis C virus [1] came to 0.01 nM; in the experiment with Hepatitis C virus [2] it was 0.02 nM; with Hepatitis C virus [3] it was 1 nM; in the experiment on Hepatitis C virus [4] it was 1 nM; in the experiment with Hepatitis C virus [5], 48 nM.

Regarding `COC(=O)N[C@H](C(=O)N1CCC[C@H]1c1ncc(-c2ccc3c(c2)OC(c2ccc(F)cc2)n2c-3cc3cc(-c4cnc([C@@H]5CCCN5C(=O)[C@@H](NC(=O)OC)C(C)C)[nH]4)ccc32)[nH]1)C(C)C` (stereo partly drawn), the EC50 in the experiment with Hepatitis C virus [1] came out at 0.006 nM; in the experiment with Hepatitis C virus [6] it was 0.01 nM; in the experiment with Hepatitis C virus [7], 0.002 nM; with Hepatitis C virus [2], 0.003 nM; in the experiment with Hepatitis C virus [8], 0.06 nM; in the experiment on Hepatitis C virus [4], 2 nM. For the same molecule, the EC50 in the experiment on Hepatitis C virus [5] amounted to 5 nM.

Consider `COC(=O)N[C@H](C(=O)N1CCC[C@H]1c1ncc(-c2ccc3c(c2)OC(c2ccccc2Cl)n2c-3cc3cc(-c4cnc([C@@H]5CCCN5C(=O)[C@@H](NC(=O)OC)C(C)C)[nH]4)ccc32)[nH]1)C(C)C` (stereo partly drawn), for which the EC50 worked out at 0.004 nM in the experiment on Hepatitis C virus [1]; 0.3 nM with Hepatitis C virus [6]; 0.04 nM with Hepatitis C virus [7]; 0.01 nM with Hepatitis C virus [2]; 2 nM with Hepatitis C virus [3]; 2 nM with Hepatitis C virus [8]. Besides, the EC50 in the experiment on Hepatitis C virus [5] is 139 nM.

Consider `COC(=O)N[C@H](C(=O)N1CCC[C@H]1c1ncc(-c2ccc3c(c2)OC(c2ccc(F)c(F)c2)n2c-3cc3cc(-c4cnc([C@@H]5CCCN5C(=O)[C@@H](NC(=O)OC)C(C)C)[nH]4)ccc32)[nH]1)C(C)C` (stereo partly drawn), for which the EC50 in the experiment with Hepatitis C virus [1] was 0.003 nM; in the experiment with Hepatitis C virus [6], 0.008 nM; in the experiment with Hepatitis C virus [7], 0.005 nM; in the experiment on Hepatitis C virus [2], 0.004 nM; with Hepatitis C virus [3], 0.5 nM; in the experiment on Hepatitis C virus [4], 1 nM. Moreover, in the experiment with Hepatitis C virus [5], the concentration for a half-maximal effect (EC50) was 3 nM.

On to `COC(=O)N[C@H](C(=O)N1CCC[C@H]1c1ncc(-c2ccc3c(c2)OC(c2ccc(C)cc2)n2c-3cc3cc(-c4cnc([C@@H]5CCCN5C(=O)[C@@H](NC(=O)OC)C(C)C)[nH]4)ccc32)[nH]1)C(C)C` (stereo partly drawn), for which the EC50 is 0.006 nM in the experiment on Hepatitis C virus [1]; 0.7 nM with Hepatitis C virus [6]; 0.01 nM with Hepatitis C virus [7]; 0.01 nM in the experiment on Hepatitis C virus [2]; 4 nM in the experiment with Hepatitis C virus [3]; 0.5 nM in the experiment on Hepatitis C virus [8]. Besides, the EC50 with Hepatitis C virus [5] came to 5 nM.

Consider `CCCOc1cccc(C2Oc3cc(-c4cnc([C@@H]5CCCN5C(=O)[C@@H](NC(=O)OC)C(C)C)[nH]4)ccc3-c3cc4cc(-c5cnc([C@@H]6CCCN6C(=O)[C@@H](NC(=O)OC)C(C)C)[nH]5)ccc4n32)c1` (stereo partly drawn), for which the EC50 in the experiment on Hepatitis C virus [2] is 0.01 nM; with Hepatitis C virus [3], 0.3 nM; with Hepatitis C virus [8], 0.08 nM; with Hepatitis C virus [4], 2 nM; in the experiment on Hepatitis C virus [5], 2.6 nM.

`COC(=O)N[C@H](C(=O)N1CCC[C@H]1c1ncc(-c2ccc3c(c2)OC(c2cccc(OCC(C)C)c2)n2c-3cc3cc(-c4cnc([C@@H]5CCCN5C(=O)[C@@H](NC(=O)OC)C(C)C)[nH]4)ccc32)[nH]1)C(C)C` (mixture of isomers): the EC50 amounted to 0.004 nM in the experiment with Hepatitis C virus [1]; 0.01 nM in the experiment with Hepatitis C virus [2]; 0.2 nM with Hepatitis C virus [3]; 0.02 nM in the experiment with Hepatitis C virus [8]; 12 nM in the experiment on Hepatitis C virus [4]; 0.9 nM in the experiment with Hepatitis C virus [5].

Regarding `COC(=O)N[C@H](C(=O)N1CCC[C@H]1c1ncc(-c2ccc3c(c2)OC(c2cccc(OC(C)C)c2)n2c-3cc3cc(-c4cnc([C@@H]5CCCN5C(=O)[C@@H](NC(=O)OC)C(C)C)[nH]4)ccc32)[nH]1)C(C)C` (mixture of isomers), the EC50 in the experiment on Hepatitis C virus [2] was 0.007 nM; in the experiment with Hepatitis C virus [3], 0.1 nM; in the experiment on Hepatitis C virus [8] it was 0.08 nM; with Hepatitis C virus [4] it was 28 nM; in the experiment with Hepatitis C virus [5], 4.4 nM.

On to `COC(=O)N[C@H](C(=O)N1CCC[C@H]1c1ncc(-c2ccc3c(c2)OC(c2cccc(-c4cn[nH]c4)c2)n2c-3cc3cc(-c4cnc([C@@H]5CCCN5C(=O)[C@@H](NC(=O)OC)C(C)C)[nH]4)ccc32)[nH]1)C(C)C` (mixture of isomers), for which the EC50 stood at 0.03 nM in the experiment with Hepatitis C virus [7]; 0.01 nM in the experiment on Hepatitis C virus [2]; 10 nM with Hepatitis C virus [3]; 0.2 nM with Hepatitis C virus [8]; 25 nM in the experiment on Hepatitis C virus [4]; 101 nM in the experiment with Hepatitis C virus [5].

For the molecule `COC(=O)N[C@H](C(=O)N1CCC[C@H]1c1ncc(-c2ccc3c(c2)OC(c2cccc(OC4CCCCC4)c2)n2c-3cc3cc(-c4cnc([C@@H]5CCCN5C(=O)[C@@H](NC(=O)OC)C(C)C)[nH]4)ccc32)[nH]1)C(C)C` (mixture of isomers), the EC50 in the experiment on Hepatitis C virus [1] came to 0.007 nM; in the experiment on Hepatitis C virus [2], 0.01 nM; with Hepatitis C virus [4], 7 nM; with Hepatitis C virus [5], 3 nM.

Turning to `COC(=O)N[C@H](C(=O)N1CCC[C@H]1c1ncc(-c2ccc3c(c2)OC(c2cccc(OC4CCCC4)c2)n2c-3cc3cc(-c4cnc([C@@H]5CCCN5C(=O)[C@@H](NC(=O)OC)C(C)C)[nH]4)ccc32)[nH]1)C(C)C` (mixture of isomers), the EC50 came out at 0.006 nM in the experiment on Hepatitis C virus [1]; 0.01 nM with Hepatitis C virus [2]; 0.2 nM in the experiment on Hepatitis C virus [3]; 0.03 nM with Hepatitis C virus [8]; 6 nM with Hepatitis C virus [4]; 4 nM with Hepatitis C virus [5].

Regarding `COC(=O)N[C@H](C(=O)N1CCC[C@H]1c1ncc(-c2ccc3c(c2)OC(c2ccccn2)n2c-3cc3cc(-c4cnc([C@@H]5CCCN5C(=O)[C@@H](NC(=O)OC)C(C)C)[nH]4)ccc32)[nH]1)C(C)C` (mixture of isomers), the EC50 amounted to 0.01 nM in the experiment with Hepatitis C virus [1]; 0.02 nM in the experiment with Hepatitis C virus [6]; 0.06 nM in the experiment on Hepatitis C virus [7]; 0.009 nM in the experiment with Hepatitis C virus [2]; 0.2 nM in the experiment with Hepatitis C virus [8]; 3 nM in the experiment with Hepatitis C virus [4]. Further, the EC50 in the experiment with Hepatitis C virus [5] is 31 nM.

On to `COC(=O)N[C@H](C(=O)N1CCC[C@H]1c1ncc(-c2ccc3c(c2)OC(c2cccc(-c4ccncc4)c2)n2c-3cc3cc(-c4cnc([C@@H]5CCCN5C(=O)[C@@H](NC(=O)OC)C(C)C)[nH]4)ccc32)[nH]1)C(C)C` (mixture of isomers), for which the concentration for a half-maximal effect (EC50) was 0.007 nM with Hepatitis C virus [7]; 0.007 nM in the experiment with Hepatitis C virus [2]; 10 nM with Hepatitis C virus [3]; 0.08 nM in the experiment on Hepatitis C virus [8]; 10 nM in the experiment on Hepatitis C virus [4]; 40 nM in the experiment with Hepatitis C virus [5].

Regarding `COC(=O)N[C@H](C(=O)N1CCC[C@H]1c1ncc(-c2ccc3c(c2)OC(c2cc(F)cc(OC)c2)n2c-3cc3cc(-c4cnc([C@@H]5CCCN5C(=O)[C@@H](NC(=O)OC)C(C)C)[nH]4)ccc32)[nH]1)C(C)C` (mixture of isomers), the EC50 amounted to 0.007 nM in the experiment on Hepatitis C virus [1]; 0.006 nM in the experiment on Hepatitis C virus [2]; 0.1 nM with Hepatitis C virus [3]; 0.1 nM in the experiment with Hepatitis C virus [4]; 2.3 nM in the experiment with Hepatitis C virus [5].

For `COC(=O)N[C@H](C(=O)N1CCC[C@H]1c1ncc(-c2ccc3c(c2)OC(c2cccc(C#N)c2)n2c-3cc3cc(-c4cnc([C@@H]5CCCN5C(=O)[C@@H](NC(=O)OC)C(C)C)[nH]4)ccc32)[nH]1)C(C)C` (mixture of isomers), the EC50 in the experiment with Hepatitis C virus [1] was less than 0.2 nM; in the experiment on Hepatitis C virus [6], less than 2 nM; in the experiment on Hepatitis C virus [7], less than 2 nM; in the experiment on Hepatitis C virus [2], less than 2 nM; in the experiment on Hepatitis C virus [8], less than 2 nM; in the experiment with Hepatitis C virus [4], less than 2 nM. Moreover, the EC50 with Hepatitis C virus [5] was found to be 4 nM.

Turning to `COC(=O)N[C@H](C(=O)N1CCC[C@H]1c1ncc(-c2ccc3c(c2)OC(c2ccc(C(F)(F)F)cc2)n2c-3cc3cc(-c4cnc([C@@H]5CCCN5C(=O)[C@@H](NC(=O)OC)C(C)C)[nH]4)ccc32)[nH]1)C(C)C` (mixture of isomers), the EC50 was 0.009 nM with Hepatitis C virus [1]; 0.04 nM with Hepatitis C virus [6]; 0.027 nM in the experiment with Hepatitis C virus [7]; 0.016 nM with Hepatitis C virus [2]; 0.27 nM with Hepatitis C virus [8]; 46 nM with Hepatitis C virus [5].

As for `COC(=O)N[C@H](C(=O)N1CCC[C@H]1c1ncc(-c2ccc3c(c2)OC(c2cccc(C)c2)n2c-3cc3cc(-c4cnc([C@@H]5CCCN5C(=O)[C@@H](NC(=O)OC)C(C)C)[nH]4)ccc32)[nH]1)C(C)C` (mixture of isomers), the results for the EC50 with Hepatitis C virus [3], in the experiment with Hepatitis C virus [4] and with Hepatitis C virus [5] were 0.52 nM, 2 nM and 12 nM, respectively.

Consider `COC(=O)N[C@H](C(=O)N1CCC[C@H]1c1ncc(-c2ccc3c(c2)OC(c2ccncc2)n2c-3cc3cc(-c4cnc([C@@H]5CCCN5C(=O)[C@@H](NC(=O)OC)C(C)C)[nH]4)ccc32)[nH]1)C(C)C` (mixture of isomers), for which the EC50 was 0.01 nM in the experiment with Hepatitis C virus [1]; 0.2 nM with Hepatitis C virus [6]; 0.02 nM in the experiment with Hepatitis C virus [7]; 0.01 nM in the experiment with Hepatitis C virus [2]; 0.6 nM in the experiment on Hepatitis C virus [3]; 0.8 nM with Hepatitis C virus [8]. Moreover, in the experiment on Hepatitis C virus [5], the EC50 was found to be 146 nM.

Consider `COC(=O)N[C@H](C(=O)N1CCC[C@H]1c1ncc(-c2ccc3c(c2)OC(c2cncnc2)n2c-3cc3cc(-c4cnc([C@@H]5CCCN5C(=O)[C@@H](NC(=O)OC)C(C)C)[nH]4)ccc32)[nH]1)C(C)C` (mixture of isomers), for which the EC50 was 0.02 nM in the experiment on Hepatitis C virus [7]; 0.004 nM in the experiment on Hepatitis C virus [2]; 10 nM with Hepatitis C virus [3]; 0.2 nM in the experiment on Hepatitis C virus [8]; 10 nM in the experiment on Hepatitis C virus [4]; 12 nM with Hepatitis C virus [5].

With `COC(=O)N[C@H](C(=O)N1CCC[C@H]1c1ncc(-c2ccc3c(c2)OC(c2cccc(O)c2)n2c-3cc3cc(-c4cnc([C@@H]5CCCN5C(=O)[C@@H](NC(=O)OC)C(C)C)[nH]4)ccc32)[nH]1)C(C)C` (mixture of isomers), the EC50 stood at 0.02 nM in the experiment on Hepatitis C virus [6]; 0.03 nM with Hepatitis C virus [7]; 0.02 nM with Hepatitis C virus [2]; 0.02 nM in the experiment on Hepatitis C virus [8]; 3 nM with Hepatitis C virus [4]; 0.8 nM in the experiment with Hepatitis C virus [5].

These data come from ChEMBL document CHEMBL3822455, “Aryl or heteroaryl substituted aminal derivatives of HCV NS5A inhibitor MK-8742” (Bioorg Med Chem Lett, 2016).
